Data: publication PMC12113356, “Novel Anti-MRSA Peptide from Mangrove-Derived Virgibacillus chiguensis FN33 Supported by Genomics and Molecular Dynamics” (Marine Drugs, 2025)
Values after ≈ are worked out from the molar mass of the structure shown. Where two headings read alike, the source gives them in different places. Peptide text beside a SMILES is read from it.

Legend:
S. aureus TISTR 517 [1] = test: Broth microdilution MIC/MBC (CLSI); format: cell-based, Staphylococcus aureus; settings: broth microdilution, CAMHB, 37 °C 24 h, triplicate
Procedure: The broth microdilution method was performed following the guidelines of the Clinical and Laboratory Standards Institute (CLSI). Test strains including S. aureus TISTR 517 and MRSA strains 142, 1096, and 2468 were cultured on MH agar at 37 °C for 18 h. A single colony from each strain was suspended in 0.85% NaCl until it reached a turbidity of 0.1 OD at 625 nm (1 × 10^8 CFU/mL). The bacterial cells were then diluted to 5 × 10^6 CFU/mL using cation-adjusted Mueller–Hinton broth (CAMHB). Ten microliters of the cell suspension were added to each well of a 96-well plate to make the total volume in each well 100 µL. The AMP was added to achieve final concentrations ranging from 0.125 to 64 µg/mL. Vancomycin and cefoxitin were used as positive controls, while antibiotic-free samples were used as negative controls. The plate was incubated at 37 °C for 24 h. Each experiment was performed in triplicate. The MIC was determined as the lowest concentration that inhibited visible bacterial growth. For the MBC, 100 µL from each dilution was spread on MH agar and incubated at 37 °C for 24 h. The MBC was the lowest concentration at which no bacterial colonies appeared on the agar plates.

MRSA strain 2468 [2] = test: Time-kill assay; format: cell-based, Staphylococcus aureus; settings: for bacterial reduction rate: triplicate
Procedure: (§1) The time–kill assay of FN33 AMP was conducted by measuring bacterial viability (log CFU/mL) at different time points. […] In the untreated group, bacterial growth increased over time, with a growth rate of 0.292 log CFU/h for S. aureus TISTR 517 and 0.2884 log CFU/h for MRSA strain 2468. […] However, complete eradication of S. aureus TISTR 517 was not achieved at either concentration, even after 24 h of treatment. […] The bactericidal effect was confirmed by complete eradication within 20 h of treatment. […] The killing rate against MRSA strain 2468 was faster than that observed for S. aureus TISTR 517 at all concentrations.
(§2) Error bars represent the standard deviation of triplicate experiments.

S. aureus TISTR 517 [3] = test: Time-kill assay; format: cell-based, Staphylococcus aureus; settings: for bacterial reduction rate: triplicate
Procedure: as §1, §2

MRSA strain 2468 [4] = test: Sytox Green uptake assay (membrane permeabilization); format: cell-based, Staphylococcus aureus; settings: 10 µM Sytox Green, ex 504/em 523 nm, over 24 h
Procedure: (§3) The Sytox Green uptake assay was conducted to assess membrane permeabilization associated with loss of membrane integrity. The fluorescence would be detected from a Sytox Green–DNA complex. […] Triton X-100 (0.125–2%) and an untreated sample were used as positive and negative controls, respectively. Fluorescence intensities were recorded 5 min before sample addition across all groups to ensure cell integrity prior to the experiment. […] For MRSA strain 2468, fluorescence intensity was higher than the positive control at the time of sample addition and remained concentration-dependent.
(§4) The membrane permeabilization of bacterial cells was determined by the increase in fluorescence intensity caused by the Sytox Green–DNA complex. The fluorescence intensity was observed over time for 24 h. The inset graphs show the expanded view of the fluorescence baseline before sample addition and the fluorescence intensity during the initial 60 min after sample addition. The increase in fluorescence intensity over the entire treatment period was expressed as fold changes, comparing different sample concentrations to the untreated condition of S. aureus TISTR 517 (c) and MRSA strain 2468 (d).
(§5) The Sytox Green uptake assay was performed to evaluate the disruption of cell membrane integrity induced by the AMP [67]. An overnight culture (16 h) of MRSA strain 2468 was harvested and washed three times with sterile PBS (pH 7.4) supplemented with 0.2% CAMHB as a diluent. The cell suspension was then diluted with the same diluent until the OD at 625 nm was 0.1 (1 × 10^8 CFU/mL). An aliquot (100 µL) of the diluted cells was added to each well, followed by incubation with 10 µM Sytox Green (Thermo Fisher Scientific Inc., Waltham, MA, USA) in the dark for 15 min. […] Triton X-100 (AppliChem GmbH, Darmstadt, Germany) was used as a positive control and prepared at final concentrations ranging from 0.125% to 2%. These concentrations were used to compare the level of cell membrane permeability induced by the AMP. Membrane permeability was assessed by measuring fluorescence intensity using a microplate reader (Thermo Scientific Inc., Waltham, MA, USA) at excitation and emission wavelengths of 504 nm and 523 nm, respectively, over a 24 h period following AMP addition. Significant differences in fluorescence intensity (p-value < 0.05) were analyzed using two-way ANOVA and Tukey’s post hoc test for multiple comparisons between treated and untreated conditions.

S. aureus TISTR 517 [5] = test: as above; format: cell-based, Staphylococcus aureus; settings: 10 µM Sytox Green, ex 504/em 523 nm, over 24 h
Procedure: as §3, §4, §5

trypsin = format: in vitro ADME; settings: 32 µg/mL, trypsin 1 mg/mL, agar well diffusion read-out vs MRSA strain 2468, % of untreated sample, mean ± SD, n = 3
Procedure: The AMP solution was prepared in sterile purified water and adjusted to a final concentration of 32 µg/mL. To determine thermal stability, the AMP was exposed to temperatures of 30, 40, 60, 80, and 100 °C, as well as to autoclaving at 121 °C and 15 psi for 15 and 30 min. The susceptibility of the AMP to enzymatic degradation was examined by treating it with proteinase K, trypsin, and α-chymotrypsin (each at 1 mg/mL, Sigma-Aldrich, Warren, MI, USA), representing different proteolytic mechanisms. The AMP’s compatibility with surfactants was assessed by incubating it with 1% SDS, 1% CTAB, and 1% Triton X-100 (AppliChem GmbH, Darmstadt, Germany). Additionally, the effect of pH variations on AMP integrity was tested by adjusting the solution to pH 1, 4, 8, 10, and 14. The pH was neutralized to the original pH after incubation before conducting antibacterial activity tests. […] Stability data were expressed as residual activity percentages relative to the untreated sample (mean ± SD), and statistical significance was evaluated using two-way ANOVA and Tukey’s post hoc test, with a p-value < 0.05 considered significant.

CC(C)C[C@H](NC(=O)[C@H](CC(=O)O)NC(=O)[C@H](CS)NC(=O)[C@H](Cc1c[nH]cn1)NC(=O)[C@H](CS)NC(=O)[C@@H]1CCCN1C(=O)[C@@H](NC(=O)[C@H](CC(C)C)NC(=O)[C@H](CS)NC(=O)CNC(=O)[C@H](Cc1c[nH]c2ccccc12)NC(=O)[C@@H](NC(=O)[C@H](CC(=O)O)NC(=O)[C@@H](NC(=O)CNC(=O)[C@H](CS)NC(=O)CNC(=O)CNC(=O)[C@@H](N)CCC(=O)O)C(C)C)[C@@H](C)O)[C@@H](C)O)C(=O)N[C@@H](Cc1ccccc1)C(=O)N[C@@H](CS)C(=O)N[C@H](C(=O)N[C@H](C(=O)O)[C@@H](C)O)[C@@H](C)O [FN33 AMP] (H-EGGCGVDTWGCLTPCHCDLFCTT-OH)
MIC (S. aureus TISTR 517 [1]): 16 µg/mL (≈ 6.61 µM)
bacterial reduction rate (MRSA strain 2468 [2]; 1× MIC): 0.1519 log CFU/h
time to eradication (no detectable bacterial counts) (MRSA strain 2468 [2]; 2× MIC): ≤ 20 h
bacterial reduction rate (MRSA strain 2468 [2]; 2× MIC): 0.2498 log CFU/h
time to eradication (no detectable bacterial counts) (MRSA strain 2468 [2]; 4× MIC): ≤ 12 h
bacterial reduction rate (MRSA strain 2468 [2]; 4× MIC): 0.4508 log CFU/h
bacterial reduction rate (S. aureus TISTR 517 [3]; 1× MIC, up to 24 h): 0.0496 log CFU/h
bacterial reduction rate (S. aureus TISTR 517 [3]; 2× MIC, up to 24 h): 0.1322 log CFU/h
time to complete eradication (S. aureus TISTR 517 [3]; 4× MIC): ≤ 20 h
bacterial reduction rate (S. aureus TISTR 517 [3]; 4× MIC): 0.2704 log CFU/h
average fluorescence increase vs untreated group (MRSA strain 2468 [4]; 0.25× MIC): 5.87 ± 0.72 fold
average fluorescence increase vs untreated group (MRSA strain 2468 [4]; 0.5× MIC): 7.44 ± 0.77 fold
average fluorescence increase vs untreated group (MRSA strain 2468 [4]; 1× MIC): 7.91 ± 0.48 fold
average fluorescence increase vs untreated group (MRSA strain 2468 [4]; 2× MIC): 8.49 ± 0.25 fold
average fluorescence increase vs untreated group (MRSA strain 2468 [4]; 4× MIC): 9.13 ± 0.46 fold
average increase in fluorescence intensity vs untreated group (S. aureus TISTR 517 [5]; 0.25× MIC): 1.88 ± 0.83 fold
average increase in fluorescence intensity vs untreated group (S. aureus TISTR 517 [5]; 0.5× MIC): 1.89 ± 0.91 fold
average increase in fluorescence intensity vs untreated group (S. aureus TISTR 517 [5]; 1× MIC): 1.98 ± 0.92 fold
average increase in fluorescence intensity vs untreated group (S. aureus TISTR 517 [5]; 2× MIC): 3.54 ± 1.64 fold
average increase in fluorescence intensity vs untreated group (S. aureus TISTR 517 [5]; 4× MIC): 8.49 ± 4.31 fold
Antibacterial Activity Retention of FN33 AMP (%) Against MRSA Strain 2468 (trypsin; 1 h): 99.60 ± 0.6%
Antibacterial Activity Retention of FN33 AMP (%) Against MRSA Strain 2468 (trypsin; 6 h): 98.82 ± 0.67%
Antibacterial Activity Retention of FN33 AMP (%) Against MRSA Strain 2468 (trypsin; 12 h): 99.04 ± 1.02%
